Each compound was assayed against T1, human GPBAR1 receptor (Homo sapiens, UniProt Q8TDU6) (assay: functional cAMP assay in CHO-dhfr(minus) cells expressing human GPBAR1 receptors). Details: CHO-dhfr(minus) cells expressing human GPBAR1, compounds incubated 30 min at 30° C.
T1 construct: expressed in transfected cells
T1 sequence (Q8TDU6 1-330): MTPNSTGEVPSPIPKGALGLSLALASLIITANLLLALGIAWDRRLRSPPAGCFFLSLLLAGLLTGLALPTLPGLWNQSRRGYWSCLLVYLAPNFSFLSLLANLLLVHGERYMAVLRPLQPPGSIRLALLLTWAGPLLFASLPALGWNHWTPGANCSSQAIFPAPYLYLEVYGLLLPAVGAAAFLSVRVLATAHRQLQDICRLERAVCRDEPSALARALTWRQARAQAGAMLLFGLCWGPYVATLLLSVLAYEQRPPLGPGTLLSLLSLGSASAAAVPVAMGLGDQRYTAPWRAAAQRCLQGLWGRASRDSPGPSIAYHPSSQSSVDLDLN
Assay type: cell-based
From the text: The cDNA of the human GPBAR1 receptor (Genbank: NM 170699 with the exception of a silent C:G mutation at position 339 from the start codon) was amplified by polymerase chain reaction (PCR) from human cDNA and inserted into pCineo (Promega) by standard methods (Current Protocols in Molecular Biology, Wiley Press, ed. Ausubel et al.). The final clone was verified by DNA sequence analysis. The plasmid was transfected into CHO cells deficient in dihydrofolate reductase activity (CHO-dhfr−) using Lipofectamine plus (Invitrogen). Clones were isolated in limited dilution conditions and identified by activities in the cAMP assay using lithocholic acid as agonist. A clonal cell line displaying the greatest activity in cAMP increases was selected and identified as giving consistently good responses for up to at least 20 passages.
CHO-dhfr(minus) cells expressing human GPBAR1 receptors are seeded 17-24 hours prior to the experiment 50.000 cells per well in a black 96 well plate with flat clear bottom (Corning Costar #3904) in DMEM (Invitrogen No. 31331), 1×HT supplement, with 10% fetal calf serum and incubated at 5% CO2 and 37° C. in a humidified incubator. The growth medium was exchanged with Krebs Ringer Bicarbonate buffer with 1 mM IBMX and incubated at 30° C. for 30 min. Compounds were added to a final assay volume of 100 μl and incubated for 30 min at 30° C. The assay was stopped by the addition of 50 μl lysis reagent (Tris, NaCl, 1.5% Triton X100, 2.5% NP40, 10% NaN3) and 50 μl detection solutions (20 μM mAb Alexa700-cAMP 1:1, and 48 μM Ruthenium-2-AHA-cAMP) and shaked for 2 h at room temperature. The time-resolved energy transfer is measured by a TRF reader (Evotec Technologies GmbH, Hamburg Germany), equipped with a ND:YAG laser as excitation source. The plate is measured twice with the excitation at 355 nm and at the emission with a delay of 100 ns and a gate of 100 ns, total exposure time 10 s at 730 (bandwidth 30 nm) or 645 nm (bandwidth 75 nm), respectively. The measured signal at 730 nm has to be corrected for the ruthenium background, the direct excitation of Alexa and the buffer control. The FRET signal is calculated as follows: FRET=T730−Alexa730−P(T645−B645) with P=R^u730−B730/Ru645−B645, where T730 is the test well measured at […], T645 is the test well measured at 645 nm, B730 and B645 are the buffer controls at 730 nm and 645 nm, respectively. cAMP content is determined from the function of a standard curve spanning from 10 μM to 0.13 nM cAMP.
EC50 values were determined using Activity Base analysis (ID Business Solution, Limited). The EC50 values for a wide range of bile acids generated from this assay were in agreement with the values published in the scientific literature. Specificity for GPBAR1 was tested in non-transfected CHO cells in the same assay as above.
COc1cc(F)ccc1-c1cc(Cl)nnc1N(C)C(=O)c1cc(C(F)(F)F)cc(S(C)(=O)=O)c1 [Example 1, N-[6-Chloro-4-(4-fluoro-2-methoxy-phenyl)-pyridazin-3-yl]-3-methanesulfonyl-N-methyl-5-trifluoromethyl-benzamide] gave an EC50 of 165 nM.
In the case of COc1cc(F)ccc1-c1ccnnc1N(C)C(=O)c1cc(C(F)(F)F)cc(S(C)(=O)=O)c1 [Example 2, N-[4-(4-Fluoro-2-methoxy-phenyl)-pyridazin-3-yl]-3-methanesulfonyl-N-methyl-5-trifluoromethyl-benzamide], the EC50 is reported as 75 nM.
COc1cc(F)ccc1-c1cc(C)nnc1N(C)C(=O)c1cc(C(F)(F)F)cc(S(C)(=O)=O)c1 [Example 3, N-[4-(4-Fluoro-2-methoxy-phenyl)-6-methyl-pyridazin-3-yl]-3-methanesulfonyl-N-methyl-5-trifluoromethyl-benzamide] showed an EC50 of 178 nM.
Cc1ccccc1-c1cc(Cl)nnc1N(C)C(=O)c1cc(C(F)(F)F)cc(S(C)(=O)=O)c1 [Example 4, N-(6-Chloro-4-o-tolyl-pyridazin-3-yl)-3-methanesulfonyl-N-methyl-5-trifluoromethyl-benzamide] was tested, and the EC50 was 2180 nM.
For CN(C(=O)c1cc(C(F)(F)F)cc(S(C)(=O)=O)c1)c1nnc(Cl)cc1-c1ccccc1 [Example 5, N-(6-Chloro-4-phenyl-pyridazin-3-yl)-3-methanesulfonyl-N-methyl-5-trifluoromethyl-benzamide], the EC50 was 2690 nM.
CN(C(=O)c1cc(C(F)(F)F)cc(S(=O)(=O)N2CCOCC2)c1)c1nnc(Cl)cc1-c1ccccc1 [Example 6] was tested, and the EC50 was 427 nM.
In the case of CN(C(=O)c1cc(C(F)(F)F)cc(C(F)(F)F)c1)c1nnc(Cl)cc1-c1ccccc1 [Example 7, N-(6-Chloro-4-phenyl-pyridazin-3-yl)-N-methyl-3,5-bis-trifluoromethyl-benzamide], the EC50 is reported as 299 nM.
In the case of COc1ncccc1-c1cc(Cl)nnc1N(C)C(=O)c1cc(C(F)(F)F)cc(S(C)(=O)=O)c1 [Example 8, N-[6-Chloro-4-(2-methoxy-pyridin-3-yl)-pyridazin-3-yl]-3-methanesulfonyl-N-methyl-5-trifluoromethyl-benzamide], the EC50 is reported as 1520 nM.
Work on Cc1ccccc1-c1cc(Cl)nnc1N(C)C(=O)c1cc(C(F)(F)F)cc(S(=O)(=O)CCCC(=O)O)c1 [Example 10, 4-{3-[(6-Chloro-4-o-tolyl-pyridazin-3-yl)-methyl-carbamoyl]-5-trifluoromethyl-benzenesulfonyl}-butyric acid] yielded an EC50 of 8180 nM.
Work on CN(C(=O)c1cc(C(F)(F)F)cc(S(C)(=O)=O)c1)c1nnc(Cl)cc1-c1cccnc1OCC(F)(F)F [Example 11, N-{6-Chloro-4-[2-(2,2,2-trifluoro-ethoxy)-pyridin-3-yl]-pyridazin-3-yl}-3-methanesulfonyl-N-methyl-5-trifluoromethyl-benzamide] yielded an EC50 of 2390 nM.
Work on CN(C(=O)c1cc(C(F)(F)F)cc(S(C)(=O)=O)c1)c1nnccc1-c1cccnc1OCC(F)(F)F [Example 12, 3-Methanesulfonyl-N-methyl-N-{4-[2-(2,2,2-trifluoro-ethoxy)-pyridin-3-yl]-pyridazin-3-yl}-5-trifluoromethyl-benzamide] yielded an EC50 of 160 nM.
Work on Cc1cc(-c2cccnc2OCC(F)(F)F)c(N(C)C(=O)c2cc(C(F)(F)F)cc(S(C)(=O)=O)c2)nn1 [Example 13, 3-Methanesulfonyl-N-methyl-N-{6-methyl-4-[2-(2,2,2-trifluoro-ethoxy)-pyridin-3-yl]-pyridazin-3-yl}-5-trifluoromethyl-benzamide] yielded an EC50 of 3910 nM.
With COc1cc(F)ccc1-c1cnncc1N(C)C(=O)c1cc(C(F)(F)F)cc(S(C)(=O)=O)c1 [Example 14, N-[5-(4-Fluoro-2-methoxy-phenyl)-pyridazin-4-yl]-3-methanesulfonyl-N-methyl-5-trifluoromethyl-benzamide] the EC50 was 230 nM.
In the case of Cc1ccccc1-c1cnncc1N(C)C(=O)c1cc(C(F)(F)F)cc(S(C)(=O)=O)c1 [Example 15, 3-Methanesulfonyl-N-methyl-N-(5-o-tolyl-pyridazin-4-yl)-5-trifluoromethyl-benzamide], the EC50 is reported as 429 nM.
Cc1ccccc1-c1cnncc1N(C)C(=O)c1cc(Cl)cc(S(C)(=O)=O)c1 [Example 16, 3-Chloro-5-methanesulfonyl-N-methyl-N-(5-o-tolyl-pyridazin-4-yl)-benzamide] showed an EC50 of 663 nM.
With Cc1ccccc1-c1cnncc1N(C)C(=O)c1cc(C(F)(F)F)cc(S(=O)(=O)CCCC(=O)OC(C)(C)C)c1 [Example 17, 4-{3-[Methyl-(5-o-tolyl-pyridazin-4-yl)-carbamoyl]-5-trifluoromethyl-benzenesulfonyl}-butyric acid tert-butyl ester] the EC50 was 775 nM.
Cc1ccccc1-c1cnncc1N(C)C(=O)c1cc(C(F)(F)F)cc(S(=O)(=O)CCCC(=O)O)c1 [Example 18, 4-{3-[Methyl-(5-o-tolyl-pyridazin-4-yl)-carbamoyl]-5-trifluoromethyl-benzenesulfonyl}-butyric acid] was tested, and the EC50 was > 10000 nM.
Cc1ccccc1-c1ncncc1N(C)C(=O)c1cc(C(F)(F)F)cc(C(F)(F)F)c1 [Example 19, N-Methyl-N-(4-o-tolyl-pyrimidin-5-yl)-3,5-bis-trifluoromethyl-benzamide] was tested, and the EC50 was 1480 nM.

Source: patent US8748434B2 (Hoffman-La Roche Inc., priority 2012, dated 2014)
